# Test results reported in PMC12036875, “Mitochondria-targeting natural product rhein conjugated with dichloroacetate as the dual inhibitor of glycolysis and oxidative phosphorylation to off energize cancer cells and induce ROS storm” (Theranostics, 2025).
# Read-outs that look alike come from different tables or passages of the source.
# Key:
# 4T1 cells [1] = test: MTT cytotoxicity assay; assay type: cell-based; conditions: Mus musculus, read-out: IC50 4T1
# Protocol: (§1) The cytotoxicity of Rhein-DCA conjugate was performed on various cancer cell lines, including breast cancer (4T1 and MCF-7), cervical cancer (HeLa), and colorectal carcinoma (CT26) via 3-(4,5)-dimethylthiahiazo(-z-y1)-3,5-di-phenytetrazoliumromide (MTT) assay. […] Moreover, the cytotoxicity of these compounds (rhein, DCA, R + D and Rhein-DCA) for normal cells (293T) was lower than that of those tested cancer cells.
# (§2) Mouse breast cancer 4T1 cells and Mouse colorectal carcinoma CT26 cells were purchased from Haixing Biosciences Co., Ltd (Jiangsu, P. R. China), and cultured in complete RPMI-1640 medium supplemented with 10% FBS and 1% Penicillin / Streptomycin in a cell incubator (37 °C in 95% air and 5% CO2 atmosphere). Human breast cancer MCF-7 cells, Human cervical carcinoma HeLa cells and Human embryonic kidney 293T cells were obtained from the China Center for Type Culture Collection (CCTCC). MCF-7 and HeLa cells were cultured in DMEM medium containing 10% FBS and 1% Penicillin / Streptomycin and then cultured in a cell incubator (37 °C in 95% air and 5% CO2 atmosphere).
# (§3) The cytotoxicity of rhein, DCA, the mixture of rhein and DCA (R + D) and Rhein-DCA conjugate was evaluated on HeLa, MCF-7, CT26, 4T1 and 293T cell lines by MTT assay. Cells were seeded in 96-well plates at a density of 3 × 10^3 cells per well in the corresponding complete culture medium and cultured for 24 h. Then cells were incubated with 200 μL fresh medium containing the respective desired concentrations of rhein, DCA, R + D (with the concentrations being 100, 66.7, 44.4, 29.6, 19.8, 13.2, 8.8, 5.9, 3.9, 2.6, 1.7 and 1.2 μM, respectively) and Rhein-DCA conjugate (with the concentrations being 29.6, 19.8, 13.2, 8.8, 5.9, 3.9, 2.6, 1.7, 1.2, 0.8, 0.5 and 0.3 μM, respectively). After 72 h of incubation, 20 μL of MTT solution (5 mg/mL) was added to each well and the plates were cultured for another 4 h. The medium was carefully removed, and 110 μL of DMSO was added into per well to dissolve the formazan. The absorption densities at 590 nm were recorded with microplate reader. The quoted IC50 values were presented as the mean ± standard deviation.
# HeLa cells = test: MTT cytotoxicity assay; assay type: cell-based; conditions: Homo sapiens
# Protocol: as §1, §2, §3
# CT26 cells = test: MTT cytotoxicity assay; assay type: cell-based; conditions: Mus musculus, CT26, 72 h, read-out: IC50 CT26
# Protocol: as §1, §2, §3
# MCF-7 cells = test: MTT cytotoxicity assay; assay type: cell-based; conditions: Homo sapiens, read-out: IC50 MCF-7
# Protocol: as §1, §2, §3
# 4T1 cells [2] = test: Mitochondrial membrane potential assay, JC-1; assay type: cell-based, Mouse; conditions: 6.25 μM, 24 h; for JC-1 green/red fluorescence (Δψm), in words: vs control
# Text: On the other hand, rhein could also disturb mitochondria, the camp of OXPHOS, to further prevent cancer cells from obtaining ATP by inducing pathological opening of mPTP [30]. We first detected mPTP on 4T1 cancer cells treated with indicated drugs according to the mPTP assay kit. The green fluorescence of Calcein AM in mitochondria would vanish when the quencher entered mitochondria through the opened mPTP channel. […] The sustained opening of mPTP along with the loss of Δψm. Thus, we further examined the Δψm of 4T1 cancer cells with JC-1 fluorescence dyes and tetramethylrhodamine, ethyl ester (TMRE) probe. The JC-1 dyes underwent a transition from aggregated red fluorescence to monomeric green fluorescence with mitochondrial depolarization in cells, and the increase of green/red fluorescence intensity ratio of JC-1 dyes indicated mitochondrial depolarization.
# TMRE is a lipophilic cationic fluorescent probe (Ex = 550 nm, Em = 575 nm). The accumulation of TMRE within the mitochondria would reduce with the mitochondrial depolarization, resulting in a decrease in fluorescence intensity. […] The integrity of mitochondria is significant for mitochondrial bioenergy production. Given the influence of ETC, NADH dehydrogenase, ATP synthase and the decrease of Δψm, we speculated that the ATP production from OXPHOS would be hindered by Rhein-DCA conjugate. Mitochondrial bioenergetic processes of 4T1 cells was measured by oxygen consumption rate (OCR) to reflect the capability of OXPHOS.
# JC-1: The Δψm was performed using the JC-1 assay with flow cytometry and confocal microscope. 4T1 cells were separately seeded into 6-well plates and confocal dishes at a density of 10 × 10^4 cells per well and cultured at 37 °C for 24 h. Cells were cultured with PBS, rhein (6.25 μM), DCA (6.25 μM), R + D (6.25 μM + 6.25 μM) and Rhein-DCA (6.25 μM) for another 24 h. […] Samples were then immediately detected by flow cytometry and imaged with confocal microscope.
# [3] = system: 4T1, MCF-7, HeLa and CT26 cell lines; test: MTT cytotoxicity assay, statement over all tested cancer cell lines; assay type: cell-based; conditions: for IC50: 72 h, read-out: IC50 in all tested cell lines
# Protocol: as §1, §3
# [4] = 4T1, 72 h treatment, MTT, mean ± S.D., n = 3
# [5] = 72 h treatment, MTT, mean ± S.D., n = 3, read-out: IC50 HeLa
# [6] = 72 h treatment, MTT, mean ± S.D., n = 3
# [7] = MCF7, 72 h treatment, MTT, mean ± S.D., n = 3
SMILES,"IC50 (4T1 cells [1]; 4T1, 72 h) [µM]","IC50 (HeLa cells; 72 h, read-out: IC50 HeLa) [µM]",IC50 (CT26 cells) [µM],"IC50 (MCF-7 cells; MCF7, 72 h) [µM]","JC-1 green/red fluorescence (Δψm), in words (4T1 cells [2])",IC50 [3] [µM],IC50 (4T1 cells [1]; [4]) [µM],IC50 (HeLa cells; [5]) [µM],IC50 (CT26 cells; [6]) [µM],IC50 (MCF-7 cells; [7]) [µM],"IC50 ([3]; MTT, summary over the cell lines) [µM]",JC-1 green/red ratio relative to control group (4T1 cells [2]),"increase of cytotoxicity in comparison with individual rhein, DCA and their combination ([3]; all four cancer cell lines)"
"O=C(O)C(Cl)Cl [DCA, Dichloroacetate]",> 100,> 100,> 100,> 100,did not affect,> 100,–,–,–,–,–,–,–
"O=C(O)c1cc(O)c2c(c1)C(=O)c1cccc(O)c1C2=O [Rhein, 4,5-dihydroxyanthraquinone-2-carboxylic acid]",–,–,–,–,relatively increased green/red ratio,–,41.2 ± 1,68.3 ± 5.1,42.1 ± 3.3,79.9 ± 2.3,40 to 80,–,–
O=C(OCCOC(=O)C(Cl)Cl)c1cc(O)c2c(c1)C(=O)c1cccc(O)c1C2=O [Rhein-DCA],–,–,–,–,–,–,1.7,6.7,2.7 ± 0.1,3.9,–,about 7 fold,at least 10 fold
